According to publication PMC4634797, “New linear antiplasmodial peptides related to angiotensin II” (Malaria Journal, 2015):
Where “and” joins values, the source holds several entries; their conditions need not be identical. Equal entries are not always repeated. Ends that are not written are not given here. Peptide text beside a SMILES is read from it.

What was measured:
[1] = tested on: uninfected human erythrocytes; assay type: cell-based
Method: The haemolytic effect of analogs 5 and 6 was determined in uninfected erythrocytes. Cells were maintained in the same culture conditions in the presence of 10^−8 mol L^−1 peptides, for 24 h. Erythrocytes were centrifuged at 900g/8 min and free haemoglobin in the supernatant was assessed by spectrophotometer at 550 nm. Untreated cells were used as negative control to discount non-specific haemolysis. The haemolytic activity was expressed as percentage of the control. This positive control (100 % haemolysis) was prepared by treating the erythrocytes with distilled water.
The effects of the Ang II, peptides 5 and 6 in the erythrocyte human cells to define the haemolysis were seeded in a 96-well plate in the absence (control) or presence of 10^−8 mol L^−1 of the analogues, as already described.
Fig. 5 Haemolytic assay of human red blood cells were treated with distilled water; uninfected erythrocytes were kept in the same conditions used in the invasion assay with a control and each peptides tested (10^−8 mol L^−1), at 37 °C for 24 h. After incubation, the supernatant was collected, clarified at 900 g/8 min and the haemoglobin content was detected in a spectrophotometer at […]. Triple asterisk statistically significant compared with distilled water value p < 0.05.

[2] = tested on: non-infected human erythrocytes; assay type: cell-based
Method: The MHC of the peptides were assessed through the measurement of haemoglobin released by non-infected human erythrocytes in the presence of increasing concentrations of the compounds in the same culture conditions of the invasion assay. As described by Jin-Jiang, MHC is the highest peptide concentration that causes no detectable release of haemoglobin.

[3] = tested on: Plasmodium falciparum W2 strain, erythrocytic cycle; details: read-out: IC50, suppression of erythrocytic invasion (rings formed) by P. falciparum; seven concentrations 10^−4 to 10^−14 mol L^−1, 24 h; non-linear regression, GraphPad Prism; n = 2
Description: The erythrocytic cycle of Plasmodiumfalciparum was maintained in vitro by culturing W2 strains in 1640 medium, supplemented with A-type human blood and serum, as described in Saraiva et al. [6].
Sorbitol solution (5 %) was used to synchronize parasite cultures into the ring stage, according to Lambros and Vanderberg [18]. The resistant ring-forms are subsequently maintained in culture as described above. Erythrocytes infected by parasite mature forms at 2–3 % parasitaemia and 5 % haematocrit were kept in the presence or absence of 10^−8 mol L^−1 synthetic peptides, for 24 h. Invasion is assessed by the appearance of new ring forms. The percentage of invasion was determined by optical microscopy (1000× magnification). It represents the total number of cells infected by rings in 100 erythrocytes in at least ten random microscopic fields. The invasion assay was carried out using two different cell suspension and generated equivalent results
The IC50 values were calculated by using GraphPad Prism Software version 5.00 for Windows (GraphPad, San Diego, California, USA). Parameters: Nonlinear Regression; log (inhibitor) vs. response equation was chosen at least square (ordinary) fit method was applied. […]

[4] = not given; remark: listed apart in the source
[5] = not given; remark: listed apart in the source
[6] = not given; remark: listed apart in the source
[7] = not given; remark: listed apart in the source
[8] = tested on: P. gallinaceum sporozoite; details: cited from earlier work; for biological (antiplasmodial) activity on P. gallinaceum sporozoites: Ala-replacement / deletion analogues and short peptides; for antiplasmodial activity against P. gallinaceum sporozoite: lactam bridged Ang II analogues
Description: Chamlian et al. studied some lactam bridged Ang II analogues, which presented Asp and Lys insertion in order to restrict the peptide. […] They replaced each amino acid by Ala or deleted the residues of the native Ang II molecule. The biological activities of the analogues […]and […]on the P. gallinaceum sporozoites were equipotent to native Ang II [4], 75 and 79 % of activity, respectively.

[9] = tested on: P. falciparum red blood cells; details: cited from earlier work
Description: Saraiva et al. described studies that aimed to identify the molecular mechanisms induced by Ang II, which are involved in the modulation of P. falciparum erythrocytic cycle. […] Torres et al. studied the influence of restrict peptides in P. falciparum red blood cells.

[10] = tested on: Plasmodium gallinaceum mature sporozoites; test: Effect of the peptides on salivary gland-derived Plasmodium gallinaceum sporozoites (membrane permeability, propidium iodide fluorescence); assay type: cell-based; details: 60 μmol L^−1 peptide in PBS, 37 °C, 1 h, fluorescence microscopy, mean, n = 9
Method: Nine-thousand P. gallinaceum mature sporozoites were recovered from the salivary glands of Ae. aegypti and incubated in 50 μL of the PBS solution, with 40 μmol L^−1 digitonin (positive control), 60 μmol L^−1 peptides or negative controls, at 37 °C for 1 h. Cell membrane integrity was then monitored using a Carl Zeiss inverted fluorescence microscope (model Observer Axio Vision A.1) coupled to an image capture Zeiss AxioCam HR digital camera (1300 × 1030 pixels resolution and 8-bit quantization) after addition of 1 μL of the propidium iodide aqueous solution (200 μmol L^−1) in 5 μL of total solution volume. Images were obtained using a 40× objective lens and a green filter effect in red. The spectral range was set with the excitation at 538 nm within the visible spectrum in order to produce orange-red fluorescence centered at 619 nm, which was processed using the Axio 4.7 software.
The effect of the peptides on sporozoites was determined in vitro by fluorescence microscopy after one hour of incubation of the parasites with each peptide in the presence of propidium iodide (see Additional file 1). The results are reported as the per cent of fluorescent sporozoites. The analyses were carried out in triplicate using three different mosquito batches and a total of nine experiments were performed (n = 9). The effects of the peptides on P. gallinaceum sporozoites in vitro assay presented 64–94 % activity.
Fig. 2 Effects of peptides on membrane permeability expressed as the per cent of fluorescent mature sporozoites (mean ± standard deviation, n = 9). […] Positive control group (+): digitonin/PBS; negative control group (−): PBS.
Nine-thousand P. gallinaceum mature sporozoites were recovered from the salivary glands of Ae. aegypti and incubated in 50 µL of the PBS solution, with 40 μmol L^–1 digitonin (positive control), 60 μmol L^–1 peptides or negative controls, at 37 °C for one hour. Cell membrane integrity was then monitored using a Carl Zeiss inverted fluorescence microscope (model Observer Axio Vision A.1) coupled to an image capture Zeiss AxioCam HR digital camera (1,300 x 1,030 pixels resolution and 8-bit quantization) after addition of 1 µL of the propidium iodide aqueous solution (200 µmol L^–1) in 5 μL of total solution volume. Images were obtained using a 40X objective lens and a green filter effect in red. The spectral range was set with the excitation at 538 nm within the visible spectrum in order to produce orange-red fluorescence centered at 619 nm, which was processed using the Axio 4.7 software.

CC[C@H](C)[C@H](NC(=O)[C@H](Cc1ccc(O)cc1)NC(=O)[C@@H](NC(=O)[C@H](CCCNC(=N)N)NC(=O)[C@@H](N)CC(=O)O)C(C)C)C(=O)N[C@@H](Cc1cnc[nH]1)C(=O)N1CCC[C@H]1C(=O)N[C@@H](Cc1ccccc1)C(=O)O [Ang II, angiotensin II]
haemolytic activity (% of distilled water control) [1]: did not present hemolytic effects | MHC [2]: 10^−5 M

N[C@@H](Cc1ccc(O)cc1)C(=O)N[C@@H](Cc1c[nH]cn1)C(=O)N1CCC[C@H]1C(=O)N[C@@H](Cc1ccccc1)C(=O)O [Peptide 5, des-Asp^1,Arg^2,Val^3,Ile^5-AII] (H-YHPF-OH)
MHC [2]: 10^−5 M | IC50 [3]: 0.89 nM | secondary conformation β-turn: 25.7% | secondary conformation α-helix [4]: 9.7% (2×) and 9.6% | secondary conformation parallel [5]: 12.1% and 13.4% | secondary conformation random coil [6]: 40.6% and 44.3% and 40.4% | secondary conformation antiparallel [7]: 12% and 13.9%

CC[C@H](C)[C@H](NC(=O)[C@@H](N)C(C)C)C(=O)N1CCC[C@H]1C(=O)N[C@@H](Cc1ccccc1)C(=O)O [Peptide 6, des-Asp^1,Arg^2,Tyr^4,His^6-AII] (H-VIPF-OH)
MHC [2]: 10^−6 M | IC50 [3]: 0.62 nM | secondary conformation β-turn: 21.7% | secondary conformation α-helix [4]: 9.6% and 9.7% (2×) | secondary conformation parallel [5]: 13% | secondary conformation random coil [6]: 40.4%

Arg-Val-Tyr-Ile-His-Pro-Phe [deletion analogue of Ang II, Ferreira et al]
biological (antiplasmodial) activity on P. gallinaceum sporozoites [8]: about 50%

Asp-Arg-Val-Tyr-Ile-His-Pro [deletion analogue of Ang II, Ferreira et al]
biological (antiplasmodial) activity on P. gallinaceum sporozoites [8]: about 50%

CRDCVYIHPF (cysteine pairing not given here) [restrict peptide of Torres et al]
reduction of the parasitaemia by restrict peptides [9]: active in two different parasite species

DRVYAHPF [Ala-replacement Ang II analogue from earlier work]
biological (antiplasmodial) activity on P. gallinaceum sporozoites [8]: 75%

DRVYDIHKPF (also: sidechain bridge or staple (positions not given here)) [VC-26, lactam bridged Ang II analogue of Chamlian et al]
antiplasmodial activity against P. gallinaceum sporozoite [8]: 73%

DRVYHIPF [Peptide 1, [Ile^6,His^5]-AII]
per cent of fluorescent mature sporozoites (Spz Fluorescence, antiplasmodial activity) [10]: 94%

DRVYIAPF [Ala-replacement Ang II analogue from earlier work]
biological (antiplasmodial) activity on P. gallinaceum sporozoites [8]: 79%

DRVYIDHKPF (also: sidechain bridge or staple (positions not given here)) [VC-12, lactam bridged Ang II analogue of Chamlian et al]
antiplasmodial activity against P. gallinaceum sporozoite [8]: 87%

DRVYPF [Peptide 2, des-Ile^5,His^6-AII]
per cent of fluorescent mature sporozoites (Spz Fluorescence, antiplasmodial activity) [10]: 64%

Ile-His-Pro-Phe [short peptide, Ferreira et al]
biological (antiplasmodial) activity on P. gallinaceum sporozoites [8]: about 80%

RYHIPF [Peptide 4, [Ile^4,His^3]-des-Asp^1,Val^3-AII]
per cent of fluorescent mature sporozoites (Spz Fluorescence, antiplasmodial activity) [10]: 77%

Val-Tyr-Ile-His-Pro [short peptide, Ferreira et al]
biological (antiplasmodial) activity on P. gallinaceum sporozoites [8]: about 80%

Val-Tyr-Ile-His-Pro-Phe (VYIHPF; printed: Val-Tyr-Ile-His-Pro-Phe) [short peptide, Ferreira et al]
biological (antiplasmodial) activity on P. gallinaceum sporozoites [8]: about 80%

[2-Nal^3]- des-Asp^1,Arg^2,Tyr^4,His^6-AII [Peptide 9]
per cent of fluorescent mature sporozoites (Spz Fluorescence, antiplasmodial activity) [10]: 70%

[2-Nal^4]- des-Asp^1,Arg^2,Tyr^4,His^6-AII [Peptide 10]
per cent of fluorescent mature sporozoites (Spz Fluorescence, antiplasmodial activity) [10]: 73%
